Source: patent publication US20250304921A1 (University of Pittsburgh-Of The Commonwealth System of …, priority 2022, published 2025)
“Also recorded” adds a separate entry of the source. Residues, ends and D or L forms follow the SMILES beside them. *: point of attachment. Decanoyl = CCCCCCCCCC(=O)*; CH2Cl = ClC*

Assays:
[1] = test system: rFeMV^US5Venus (6); assay type: cell-based, Feline morbillivirus (FeMV)
[2] = test system: rFeMV^US5Venus (6); assay type: cell-based, Feline morbillivirus (FeMV); remark: listed apart in the source
[3] = test system: rFeMV^US5Venus (6) or rFeMV^US5Venus (3); assay type: cell-based, Feline morbillivirus (FeMV)
[4] = test system: FeMV^US5FPB; experiment: Western blot of AU1-tagged F glycoprotein processing (F0 to F1) in transfected cells; assay type: cell-based, Feline morbillivirus (FeMV); settings: E64d 20 μM vs DMSO; transfected CRFK cells, lysates at 2 d.p.t.
Description: (§1) CRFK cells were transfected with pCG-FeMV^US5F, pCG-FeMV^US5FAU1, or pCG-FeMV^US5FPB-AU1 in the absence or presence of the pan-cysteine protease inhibitor E64d. At 2 d.p.t. cell lysates were prepared. Medium was removed and the monolayers were rinsed twice with 1 ml cold D-PBS. Cold 1× RIPA buffer (Boston bioproducts; 200 μl) containing 1× HALT protease inhibitors (Thermo Fisher Scientific) was added to the monolayers and incubated on ice for 15 minutes. Monolayers were scraped into the buffer and transferred to cold 1.5 ml tubes. Lysates were incubated on ice for 30 minutes with intermittent vortexing before being centrifuged at 14,000 g for 15 minutes at 4° C. to pellet nuclei. The cleared supernatants were used to prepare samples for polyacrylamide gel electrophoresis (PAGE) by adding appropriate volumes of 4× NUPAGE™ LDS sample loading buffer and ×10 NUPAGE™ reducing agent (both Thermo Fisher Scientific Scientific). PAGE samples were heated to 70° C. for 10 minutes before separation of proteins on a 10% NUPAGE™ bis-TRIS polyacrylamide gel using the Xcell SureLock Mini-Cell system (Thermo Fisher Scientific Scientific) according to manufacturer's instructions. An aliquot of SeeBlue Plus2 Protein Standard was included on each gel to allow estimation of protein sizes. […]

[5] = test system: FeMV^US5F; experiment: as above; assay type: cell-based, Feline morbillivirus (FeMV); settings: E64d 20 μM vs DMSO; transfected CRFK cells, lysates at 2 d.p.t.
Description: as §1

[6] = test system: FeMV F and H glycoproteins; assay type: cell-based, Feline morbillivirus (FeMV)
[7] = test system: NiV^MA F and G glycoproteins; assay type: cell-based, Nipah virus (NiV)
[8] = test system: FeMV^US5FPB protein; assay type: cell-based, Feline morbillivirus (FeMV)
[9] = test system: MV^KS F and H glycoproteins; assay type: cell-based
[10] = test system: CDV^RI F and H glycoproteins; assay type: cell-based
[11] = test system: FeMV; settings: trypsin added during virus titration in CRFK cells; cited from earlier work

Question: With `CCCNC(=O)[C@H]1O[C@@H]1C(=O)N[C@H](C(=O)N1CCC[C@H]1C(=O)OC)[C@@H](C)CC` [CA-074Me] as the molecule, how does the “cell-to-cell fusion and spread by rFeMV^US5Venus (6) and rFeMV^US5Venus (3)” value [1] read?
Answer: prevented cell-to-cell fusion and spread

Question: And the “spread of rFeMV^US5Venus (6) infection” value [1]?
Answer: limited to single cells with no spread from the initially infected cell

Question: What about the “virus entry and initial replication in cells” value [1] of the same molecule?
Answer: can enter and initially replicate in cells equivalently to the no inhibitor control

Question: And the “rFeMV^US5-induced cell-to-cell fusion (luciferase activity)” value [2]?
Answer: reduced; also recorded: inhibited

Question: What about the infectious virus titers [3] of the same molecule?
Answer: reduced the infectious virus titers by two logs

Question: With `CCOC(=O)[C@H]1O[C@@H]1C(=O)N[C@@H](CC(C)C)C(=O)NCCC(C)C` [E64d] as the molecule, how does the “FeMV^US5FPB (polybasic cleavage signal) F0 processing” value [4] read?
Answer: no longer prevented F0 glycoprotein processing

Question: And the “FeMV^US5F processing (F0 to F1 subunit)” value [5]?
Answer: prevented FeMV^US5F processing

Question: And the FeMV glycoprotein-induced fusion [6]?
Answer: significantly reduced; also recorded: inhibited

Question: What about the “NiV^MA glycoprotein-induced fusion” value [7] of the same molecule?
Answer: significantly reduced

Question: What about the “fusion activity with FeMV^US5FPB protein” value [8] of the same molecule?
Answer: no longer affected the fusion activity

Question: What about the “cell-to-cell fusion and spread by rFeMV^US5Venus (6) and rFeMV^US5Venus (3)” value [1] of the same molecule?
Answer: prevented cell-to-cell fusion and spread

Question: What about the “spread of rFeMV^US5Venus (6) infection” value [1] of the same molecule?
Answer: limited to single cells with no spread from the initially infected cell

Question: And the “virus entry and initial replication in cells” value [1]?
Answer: can enter and initially replicate in cells equivalently to the no inhibitor control

Question: What about the “rFeMV^US5-induced cell-to-cell fusion (luciferase activity)” value [2] of the same molecule?
Answer: reduced

Question: And the infectious virus titers [3]?
Answer: reduced the infectious virus titers by two logs

Question: Which results are given for `CCCCCCCCCC(=O)N[C@@H](CCCN=C(N)N)C(=O)N[C@H](C(=O)N[C@@H](CCCCN)C(=O)N[C@@H](CCCN=C(N)N)C(=O)CCl)C(C)C` [furin inhibitor I] (Decanoyl-RVKR-CH2Cl)?
Answer: FeMV glycoprotein-induced fusion [6]: unaffected; MV^KS glycoprotein-induced fusion [9]: reduced; CDV^RI glycoprotein-induced fusion [10]: reduced; fusion activity with FeMV^US5FPB protein [8]: significantly reduced fusion; spread of rFeMV^US5Venus (6) infection [1]: had spread significantly; rFeMV^US5-induced cell-to-cell fusion (luciferase activity) [2]: no difference in luciferase activity

B1: trypsin (protein, UniProt P00760 24-246, looked up)
Serine protease 1: IVGGYTCGANTVPYQVSLNSGYHFCGGSLINSQWVVSAAHCYKSGIQVRLGEDNINVVEGNEQFISASKSIVHPSYNSNTLNNDIMLIKLKSAASLNSRVASISLPTSCASAGTQCLISGWGNTKSSGTSYPDVLKCLKAPILSDSSCKSAYPGQITSNMFCAGYLEGGKDSCQGDSGGPVVCSGKLQGIVSWGSGCAQKNKPGVYTKVCNYVSWIKQTIASN
notes: exogenous protease added to fusion assays or virus titration
Question: For B1, which “effect of exogenous trypsin on FeMV glycoprotein-induced cell-to-cell fusion” value [6] is on record?
Answer: did not enhance fusion

Question: And the “effect of trypsin on resultant virus titers” value [11]?
Answer: did not augment the resultant virus titers
